According to the NIST ThermoML archive (doi:10.1021/je501130r):
Numbers after ± are expanded uncertainties.

Details: Liquid, Closed cell (Static) method

| SMILES | vapor or sublimation pressure (293.15 K) [kPa] | vapor or sublimation pressure (303.15 K) [kPa] | vapor or sublimation pressure (313.15 K) [kPa] |
| --- | --- | --- | --- |
| C=C(F)C(F)(F)F [2,3,3,3-tetrafluoro-1-propene] | 591.5 ± 3.5 | 783.6 ± 3.8 | 1018.9 ± 4.3 |
| CC(F)(Cl)C(F)(F)F (stereo unspecified) [2-chloro-1,1,1,2-tetrafluoropropane] | 128.3 ± 3 | 181.6 ± 3.1 | 247.6 ± 3.1 |
